Results taken from patent US8178077B2, “Drug development target protein and target gene, and method of screening” (Reverse Proteomics Research Institute Co., Ltd., priority 2004, dated 2012).

Columns and labels:
[1] = molecular target: T1, FLJ39196 clone-derived protein (human neurocalcin δ) (Homo sapiens, UniProt P61601); assay: SEC/MS interaction analysis (size exclusion spin column and mass analysis) with FLJ39196 clone-derived protein; assay type: binding
T1 construct: A human full-length cDNA clone was expressed as a protein with an N-terminal His tag; His tag (N); made in house; host or cells: Escherichia coli BL21star(DE3)pLysS (pDEST17 Gateway expression plasmid)
Method in brief: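 Unmodified, non-immobilized protein was mixed with compound and separated by size exclusion on 384-well Unifilter 100 spin columns packed with 10 μL Bio-Gel P6. The protein-fraction filtrate was collected in 50% acetonitrile, deproteinized, concentrated, redissolved in 10 μL of 50% methanol, and 2 μL was injected for ESI mass analysis of compound spectral intensity.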

[2] = molecular target: T2, FLJ20589 clone-derived protein (human hippocalcin-like protein 1, VILIP-3) (Homo sapiens, UniProt P37235); assay: SEC/MS interaction analysis (size exclusion spin column and mass analysis) with FLJ20589 clone-derived protein; assay type: binding
T2 construct: A human full-length cDNA clone was expressed as a protein with an N-terminal His tag; His tag (N); made in house; host or cells: Escherichia coli BL21star(DE3)pLysS (pDEST17 Gateway expression plasmid)

[3] = protein 0 μM (protein-free reference), compound 1 μM
[4] = protein 0 μM (protein-free reference), compound 10 μM
[5] = protein 0 μM (protein-free reference), compound 100 μM
[6] = protein 0 μM (protein-free reference), compound 250 μM
[7] = protein 23.75 μM, compound 1 μM
[8] = protein 23.75 μM, compound 10 μM
[9] = protein 23.75 μM, compound 100 μM
[10] = protein 23.75 μM, compound 250 μM
[11] = protein 47.5 μM, compound 10 μM
[12] = protein 47.5 μM, compound 100 μM
[13] = protein 47.5 μM, compound 250 μM

| spectral intensity of the compound in the SEC spin column filtrate (protein fraction) [1, 3] | spectral intensity of the compound in the SEC spin column filtrate (protein fraction) [1, 4] | spectral intensity of the compound in the SEC spin column filtrate (protein fraction) [1, 5] | spectral intensity of the compound in the SEC spin column filtrate (protein fraction) [1, 6] | spectral intensity of the compound in the SEC spin column filtrate (protein fraction) [1, 7] | spectral intensity of the compound in the SEC spin column filtrate (protein fraction) [1, 8] | spectral intensity of the compound in the SEC spin column filtrate (protein fraction) [1, 9] | spectral intensity of the compound in the SEC spin column filtrate (protein fraction) [1, 10] | spectral intensity of the compound in the SEC spin column filtrate (protein fraction) ([1]; protein 47.5 μM, compound 1 μM) | spectral intensity of the compound in the SEC spin column filtrate (protein fraction) [1, 11] | spectral intensity of the compound in the SEC spin column filtrate (protein fraction) [1, 12] | spectral intensity of the compound in the SEC spin column filtrate (protein fraction) [1, 13] | spectral intensity of the compound in the SEC spin column filtrate (protein fraction) [2, 3] | spectral intensity of the compound in the SEC spin column filtrate (protein fraction) [2, 4] | spectral intensity of the compound in the SEC spin column filtrate (protein fraction) [2, 5] | spectral intensity of the compound in the SEC spin column filtrate (protein fraction) [2, 6] | spectral intensity of the compound in the SEC spin column filtrate (protein fraction) [2, 7] | spectral intensity of the compound in the SEC spin column filtrate (protein fraction) [2, 8] | spectral intensity of the compound in the SEC spin column filtrate (protein fraction) [2, 9] | spectral intensity of the compound in the SEC spin column filtrate (protein fraction) [2, 10] | Structure (SMILES) | also measured |
| --- | --- | --- | --- | --- | --- | --- | --- | --- | --- | --- | --- | --- | --- | --- | --- | --- | --- | --- | --- | --- | --- |
| 32068857 | 34579053 | 30705006 | 32278650 | 27516354 | 30253800 | 60323012 | 85169446 | 33844567 | 38342358 | 152159135 | 322219706 | 2704636 | 2935358 | 2558136 | 3779926 | 2343078 | 2189489 | 3826699 | 3607174 | c1ccc(-c2ccc(C(c3ccccc3)n3ccnc3)cc2)cc1 (stereo not drawn) [Bifonazole] | spectral intensity of the compound in the SEC spin column filtrate (protein fraction) ([2]; protein 47.5 μM, compound 1 μM): 1367901; spectral intensity of the compound in the SEC spin column filtrate (protein fraction) [2, 11]: 2513645; spectral intensity of the compound in the SEC spin column filtrate (protein fraction) [2, 12]: 8024232; spectral intensity of the compound in the SEC spin column filtrate (protein fraction) [2, 13]: 28949362 |
| 6645734 | 7904072 | 204390563 | 632906281 | 7580781 | 40058178 | 293702761 | 1292987653 | 7231665 | 14142338 | 5846308 | 2293500744 | 1499445 | 1420853 | 2266965 | 4146130 | 469062 | 893634 | 41947038 | 57062370 | CN1CCN(CCCN2c3ccccc3Sc3ccc(C(F)(F)F)cc32)CC1 [Trifluoperazine] | spectral intensity of the compound in the SEC spin column filtrate (protein fraction) ([2]; protein 47.5 μM, compound 1 μM): 459554; spectral intensity of the compound in the SEC spin column filtrate (protein fraction) [2, 11]: 2953415; spectral intensity of the compound in the SEC spin column filtrate (protein fraction) [2, 12]: 67433540; spectral intensity of the compound in the SEC spin column filtrate (protein fraction) [2, 13]: 116228047 |
